The values below come from PubChem BioAssay (NCI).

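Grown in 96-well plates, cells were treated for 48 hours with each compound at five concentrations. Insufficient inhibition: endpoint recorded as highest concentration tested. Abbreviation: GI50, concentration required for 50% inhibition of growth. At the TGI there is no net growth.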

Some test systems named below: ACHN renal; HCT-116 colon; NCI-H23 lung; OVCAR-4 ovarian; OVCAR-8 ovarian; SF-268 CNS; SK-MEL-2 melanoma; SK-MEL-5 melanoma; SNB-75 CNS; SW-620 colon.
Common to all, as to assay: DTP human tumour cell line panel, 48 h

Usually GI50 stands for the concentration that inhibits growth by half. What is called TGI is the concentration at which net growth stops. Read a high TGI as less potent growth arrest. `CCN(CC)CCC(CNc1ccnc2cc(Cl)ccc12)c1ccc(Cl)cc1` (stereo not given): the GI50 with ACHN renal was 0.467 µM; with HCT-116 colon, 1.01 µM; with NCI-H23 lung, 1.87 µM; in the assay on OVCAR-4 ovarian, 0.764 µM; in the assay on OVCAR-8 ovarian, 1.86 µM; in the assay on SF-268 CNS it was 1.97 µM. For the same molecule, the GI50 in the assay with SK-MEL-2 melanoma was 1.57 µM; in the assay with SK-MEL-5 melanoma, 1.11 µM; in the assay with SNB-75 CNS it was 1.3 µM; with SW-620 colon it was 1.48 µM. For the same molecule, the TGI in the assay on ACHN renal worked out at 1.78 µM; with HCT-116 colon, 2.32 µM; in the assay with NCI-H23 lung, 7.1 µM; in the assay with OVCAR-4 ovarian it was 4.32 µM; in the assay on OVCAR-8 ovarian, 4.79 µM; in the assay with SF-268 CNS, 4.61 µM. For the same molecule, the TGI in the assay on SK-MEL-2 melanoma is 3.18 µM; in the assay on SK-MEL-5 melanoma, 2.34 µM; in the assay with SNB-75 CNS, 2.64 µM; with SW-620 colon it was 3.39 µM.

Turning to `S=C(Nc1ccc(Cl)cc1)Nc1ccc(-c2nc3ccccc3s2)cc1`, the GI50 in the assay with ACHN renal is 15.4 µM; in the assay with HCT-116 colon, 13.5 µM; in the assay with NCI-H23 lung, 14.1 µM; in the assay on OVCAR-4 ovarian it was 14.4 µM; with OVCAR-8 ovarian it was 17.9 µM; in the assay on SF-268 CNS, 13.8 µM. The GI50 in the assay with SK-MEL-2 melanoma was 21 µM; with SK-MEL-5 melanoma it was 11 µM; with SNB-75 CNS it was 13.8 µM; with SW-620 colon, 17.9 µM. Besides, the TGI in the assay on ACHN renal worked out at 45.4 µM; in the assay with HCT-116 colon it was 26.3 µM; with NCI-H23 lung it was 27.3 µM; in the assay on OVCAR-4 ovarian, 69.4 µM; in the assay on OVCAR-8 ovarian it was 41.7 µM; with SF-268 CNS, 32 µM. For the same molecule, the TGI in the assay on SK-MEL-2 melanoma turned out to be 40.2 µM; in the assay with SK-MEL-5 melanoma, 22.9 µM; with SNB-75 CNS, 35.5 µM; in the assay with SW-620 colon, 35.4 µM.

As to `COc1cc(-c2oc(=O)ccc2C#Cc2ccccn2)cc(OC)c1OC`, the GI50 was 11.7 µM in the assay on ACHN renal; 2.75 µM with HCT-116 colon; 2.4 µM in the assay with NCI-H23 lung; 9.65 µM in the assay with OVCAR-4 ovarian; 3.89 µM in the assay on OVCAR-8 ovarian; 5.56 µM in the assay with SF-268 CNS. Also, the GI50 with SK-MEL-2 melanoma is 4.15 µM; in the assay with SK-MEL-5 melanoma, 2.09 µM; with SNB-75 CNS it was 1.93 µM; in the assay with SW-620 colon it was 2.28 µM. The TGI in the assay with ACHN renal is above 100 µM; with HCT-116 colon, above 100 µM; in the assay with NCI-H23 lung it was above 29.4 µM; with OVCAR-4 ovarian, above 100 µM; in the assay with OVCAR-8 ovarian, above 100 µM; in the assay with SF-268 CNS, above 100 µM. Moreover, the total growth inhibition concentration (TGI) in the assay with SK-MEL-2 melanoma is above 100 µM; in the assay on SK-MEL-5 melanoma it was 11.2 µM; in the assay with SNB-75 CNS, above 29.8 µM; in the assay with SW-620 colon, above 100 µM.

Regarding `NC(=S)N/N=C/C(=O)O`, the GI50 was above 100 µM in the assay with ACHN renal; 14.7 µM in the assay on HCT-116 colon; above 100 µM with NCI-H23 lung; 37.5 µM with OVCAR-4 ovarian; above 100 µM in the assay on OVCAR-8 ovarian; above 100 µM in the assay on SF-268 CNS. The GI50 in the assay on SK-MEL-2 melanoma, in the assay with SK-MEL-5 melanoma, with SNB-75 CNS and in the assay on SW-620 colon was above 100 µM in each case. In addition, the TGI with ACHN renal, in the assay on HCT-116 colon, in the assay on NCI-H23 lung, in the assay on OVCAR-4 ovarian, with OVCAR-8 ovarian and in the assay on SF-268 CNS was above 100 µM throughout. For the same molecule, the concentration for total growth inhibition (TGI) in the assay on SK-MEL-2 melanoma, with SK-MEL-5 melanoma, in the assay on SNB-75 CNS and with SW-620 colon was above 100 µM each time.

For the molecule `O=C(Nc1ccc(Br)cc1F)c1cc(F)ccc1O`, the GI50 in the assay on ACHN renal is 0.499 µM; in the assay on HCT-116 colon, 0.44 µM; in the assay with NCI-H23 lung it was 0.386 µM; in the assay with OVCAR-4 ovarian it was 0.612 µM; in the assay on OVCAR-8 ovarian, 1.3 µM; in the assay on SF-268 CNS, 0.558 µM. In addition, the GI50 in the assay on SK-MEL-2 melanoma was 0.398 µM; with SK-MEL-5 melanoma, 0.227 µM; with SNB-75 CNS it was 0.225 µM; with SW-620 colon, 0.805 µM. The concentration for total growth inhibition (TGI) was 11.3 µM in the assay with ACHN renal; 1.96 µM in the assay with HCT-116 colon; 3.15 µM with NCI-H23 lung; above 27.8 µM with OVCAR-4 ovarian; 15 µM in the assay on OVCAR-8 ovarian; 10.1 µM in the assay on SF-268 CNS. Moreover, the concentration for total growth inhibition (TGI) in the assay with SK-MEL-2 melanoma is 2.56 µM; with SK-MEL-5 melanoma, 0.541 µM; with SNB-75 CNS, 2.11 µM; in the assay with SW-620 colon, 15.4 µM.

As for `CC(=O)CCn1ncc(Cl)c(Cl)c1=O`, the concentration for total growth inhibition (TGI) in the assay on ACHN renal came out at 30.9 µM; in the assay with HCT-116 colon it was 27.9 µM; in the assay on NCI-H23 lung it was 32.6 µM; with OVCAR-4 ovarian, 21.9 µM; with OVCAR-8 ovarian, 54.9 µM; in the assay with SF-268 CNS, 28 µM. The TGI was 28.4 µM with SK-MEL-2 melanoma, 33.5 µM in the assay with SK-MEL-5 melanoma, 72 µM with SNB-75 CNS and 39 µM in the assay with SW-620 colon.

As for `Nc1ccc([N+](=O)[O-])cc1N=C/C=C/c1ccccc1`, the GI50 with ACHN renal is 34.4 µM; in the assay with HCT-116 colon it was 7.86 µM; in the assay on NCI-H23 lung it was 18.4 µM; with OVCAR-4 ovarian, 11.2 µM; with OVCAR-8 ovarian, 23.5 µM; in the assay with SF-268 CNS it was 5.91 µM. The GI50 is 28.6 µM with SK-MEL-2 melanoma, 10.7 µM with SK-MEL-5 melanoma, 10.8 µM with SNB-75 CNS and 6.12 µM in the assay with SW-620 colon. Further, the total growth inhibition concentration (TGI) in the assay with ACHN renal was above 100 µM; in the assay on HCT-116 colon it was 25 µM; with NCI-H23 lung it was above 100 µM; in the assay on OVCAR-4 ovarian, 90.2 µM; in the assay on OVCAR-8 ovarian, above 100 µM; in the assay on SF-268 CNS, 40.6 µM. Also, the concentration for total growth inhibition (TGI) in the assay on SK-MEL-2 melanoma is above 100 µM; with SK-MEL-5 melanoma it was 48.8 µM; with SNB-75 CNS it was 96.6 µM; with SW-620 colon it was above 100 µM.

On to `Cn1c(I)c(C#CCO[Si](C)(C)C(C)(C)C)c(=O)[nH]c1=O`, for which the GI50 is 15.9 µM in the assay with ACHN renal; 14.3 µM with HCT-116 colon; 19.3 µM in the assay with NCI-H23 lung; 10.1 µM with OVCAR-4 ovarian; 22.4 µM in the assay with OVCAR-8 ovarian; 15.9 µM in the assay on SF-268 CNS. Also, the GI50 was 13.9 µM in the assay on SK-MEL-2 melanoma, 17.1 µM in the assay with SK-MEL-5 melanoma, 16.2 µM with SNB-75 CNS and 1.96 µM in the assay on SW-620 colon. In addition, the TGI was determined as 29.5 µM with ACHN renal; 28.5 µM in the assay on HCT-116 colon; 39.5 µM in the assay with NCI-H23 lung; 27.4 µM in the assay with OVCAR-4 ovarian; 51.7 µM with OVCAR-8 ovarian; 30.2 µM in the assay on SF-268 CNS. The total growth inhibition concentration (TGI) amounted to 27.7 µM in the assay on SK-MEL-2 melanoma, 31.3 µM in the assay on SK-MEL-5 melanoma, 37.7 µM with SNB-75 CNS and 4.14 µM in the assay with SW-620 colon.
